Experimental data as given in article PMC7539967, “The Plasmodium falciparum eIK1 kinase (PfeIK1) is central for melatonin synchronization in the human malaria parasite. Melatotosil blocks melatonin action on parasite cell cycle” (Journal of Pineal Research, 2020).
Entries after “also recorded” stand apart in the source; their conditions may differ. Read-outs that look alike come from different tables or passages of the source.

What was measured:
[1] = system: Plasmodium falciparum 3D7; experiment: Effect of indole compounds in parasitemia (48 h), 3D7; assay type: cell-based; conditions: 3D7, 500 nM compound; for activity at 0.5 µM: Plasmodium falciparum, read-out: final parasitemia normalized to control
Protocol: (§1) Red blood cells infected (iRBC) with 3D7 or PfeIK1^‐ (iRBC) with 1% initial parasitemia and 2% hematocrit were incubated with 500 nM of the synthetic indole compounds or 100 nM Melatonin for 48 hours at 37°C under mixture of gases. ^12 The control group received 0.0013% of solvent dimethyl sulfoxide (DMSO).
(§2) After 48 hours, iRBC were double‐stained ^34 with nucleic acid marker SYBR Green I (1X) and mitochondria marker, based on membrane potential, MitoTracker Deep Red (50 nM), and incubated for 20 minutes at 37°C.
(§3) Final parasitemia was obtained by flow cytometer using an Accuri C6 flow cytometer (Becton Dickinson), collecting 10^4 cells. Parasitemia was determined by dot plots using FlowJo 5 software.

[2] = system: Human Embryonic Kidney cells (HEK293); experiment: Cytotoxicity Assay in HEK293 cells (MTT); assay type: cell-based; conditions: 0.107 to 110 µM, 72 h
Protocol: To evaluate toxicity of the new indole compounds in mammalian cells, Human Embryonic Kidney cells (HEK293) were maintained in 75 cm^2 culture flasks (Greiner Bio‐One) at 37°C, 5%CO2 in […] (DMEM), supplemented with 10% fetal bovine serum, NaHCO33.7 g/L (Sigma), 100 U/mL penicillin/, and 100 μg/mL streptomycin in monolayers.
Cells were plated in flat‐bottom 96‐well plates in a density of 10^4 cells per well and incubated for 24 hours in 150 µL media at 37°C, 5%CO2. Cells were then treated with different concentrations of each compound, ranging from 0.107 to 110 µM in 200 µL DMEM for 72 hours at 37°C and 5%CO2. Cells treated with DMSO (v/v) with the highest concentration of solvent 0.14% were used as control.
After incubation, 40 µL of MTT reagent (solution 5 mg/mL in PBS) was added to each well, and cells were incubated for further 3 hours at 37°C and 5% CO2. The media were removed and 100 µL of DMSO was added in each well. Plates were agitated in a shaker for 10 minutes to dissolve precipitates. Absorbance was read at 570 nm in a FlexStation 3 (Molecular Devices). Six experiments were performed independently in triplicates.

P. falciparum PfeIK1^‐ [3] = experiment: Effect of compounds on melatonin action on parasitemia, PfeIK1 knockout; assay type: cell-based, Plasmodium falciparum; conditions: 500 nM compound + 100 nM melatonin, 48 h, normalized to control
Protocol: (§4) To evaluate the effect of the compounds on melatonin action on parasitemia, iRBC were incubated with 500 nM of compounds for 10 minutes and then along with 100 nM of melatonin for 48 hours at 37°C under mixture of gases.
as §2, §3

P. falciparum PfeIK1^‐ [4] = experiment: Effect of indole compounds in parasitemia (48 h), PfeIK1 knockout; assay type: cell-based; conditions: Plasmodium falciparum, read-out: final parasitemia normalized to control
Protocol: as §1, §2, §3

[5] = system: Plasmodium falciparum 3D7; experiment: In vitro growth assay and flow cytometry analysis (72 h), 3D7; assay type: cell-based; conditions: for IC50: Plasmodium falciparum
Protocol: (§5) Red blood cells infected with P. falciparum 3D7 or PfeIK1^‐ (iRBC) with 0.3 % initial parasitemia and 1% hematocrit were incubated with different concentrations of compounds Tripbenz (4), Triptosil (5), Triptiofen (6), Tripfuroila (7), and Tripcicloexil (8) ranging from 0.107 to 110 µM, and compounds Melatobenz (9), Melatotosil (10), Melatofuroila (11), and Melatocicloexil (12) ranging from 0.1 to 100 µM for 72 hours at 37°C under mixture of gases. The control group was treated with solvent dimethyl sulfoxide (DMSO) (v/v), with the highest concentration of solvent 0.14%. Chloroquine was used as positive control with concentrations ranging from 0.244 to 250 nM. Parasitemia was determined from dot plots (side scatter versus fluorescence) of at least 10^3 cells acquired on a FACSCalibur flow cytometer using […] software (Becton Dickinson) or an Accuri C6 flow cytometer (Becton Dickinson). Initial gating was carried out with unstained, uninfected erythrocytes to account for erythrocyte auto fluorescence. The concentration responsible for 50% inhibition (IC50) was determined from the compound concentration‐response curve determined with the software GraphPad Prism 6.
(§6) For assays with antimalarials, iRBC were incubated with different concentrations of Atovaquone ranging from 0.02 to 24 nM, or Artemisinin 0.15‐160 nM.
(§7) After 72 hours, iRBC were stained with nucleic acid marker SYBR Green I (1X) (Invitrogen) and mitochondria marker based on membrane potential MitoTracker Deep Red (50 nM) (Invitrogen), and incubated for 20 minutes at 37°C. Final parasitemia was obtained by flow cytometer using a BD Accuri C6 Flow Cytometer, collecting 10^4 cells. Parasitemia was determined by dot plots using FlowJo 5 software.
(§8) At least three independent experiments were performed in triplicate to calculate the IC50 values for each drug.

P. falciparum PfeIK1^‐ [6] = experiment: In vitro growth assay and flow cytometry analysis (72 h), PfeIK1 knockout; assay type: cell-based, Plasmodium falciparum; conditions: for IC50: Plasmodium falciparum
Protocol: as §5, §6, §7, §8

[7] = system: Plasmodium falciparum 3D7; experiment: Effect of compounds on melatonin action on parasitemia, 3D7; assay type: cell-based; conditions: 3D7, 500 nM compound + 100 nM melatonin, 48 h
Protocol: as §4, §2, §3

[8] = system: P. falciparum GCaMP3 parasites; experiment: Calcium assay in transgenic PfGCaMP3 parasites; assay type: cell-based, Plasmodium falciparum; conditions: 500 nM; for cytosolic calcium rise: PfGCaMP3; for Fmax/F0 (maximum fluorescence normalized to baseline): PfGCaMP3, 120 cells
Protocol: Calcium assays were performed using the transgenic P. falciparum GCaMP3 parasites. ^37 PfGCaMP3 cultures were synchronized at least three times with 5% sorbitol before starting the experiments, and parasitemia was maintained between 5% and 8%. PfGCaMP3 parasites were cultivated with 10 nM/mL of WR for selection. Parasites were isolated with saponin (0.016%) and collected by centrifugation 8000 rpm, subsequently washed twice with buffer M, and allowed to settle in a four‐well plate for microscope coated with poly‐L‐lysine for 30 minutes at 37°C with 5% CO2 in buffer M ([…], 5.4 mM KCl, 0.8 mM MgSO4, 5.5 mMD‐glucose, 50 mM MOPS, and 2 mM CaCl2, pH 7.2). The compounds used for measuring calcium assays were as follows: Melatotosil and Triptiofen solubilized in DMSO.
Images were captured using a Nikon Eclipse Ti2 inverted microscope with FITC filter. Images were collected every 10 seconds for 5 minutes, with NIS‐Elements Ar 5.11.01 from Nikon using 60× lens. All experiments were performed at least three independent times in duplicates.

P. falciparum (3D7) = experiment: Microscopy evaluation of blood-stage development (Giemsa smears); assay type: cell-based, Plasmodium falciparum; conditions: for parasites in segmented schizont stage: 48 h, 3D7, Giemsa smears
Protocol: Plasmodium falciparum (3D7) cultures were synchronized by three rounds of 5% sorbitol treatment for 1 hour. ^35 Parasites at ring stage with initial 1% parasitemia and 2% hematocrit were incubated with Triptiofen (6) at concentrations of 1 and 10 µM in 24‐well plates for 48 hours at 37°C under mixture of gases. The DMSO solvent (0.1%) was used as a control. Smears of infected erythrocytes stained with Giemsa were performed at regular intervals (0, 12, 24, 36 and 48 hours after treatment). ^36 Parasite images were acquired under a light microscope (Zeiss) with 100× magnification to assess the parasite's blood development stages. The parasitemia at the end of the experiment was quantified for comparison between groups. Three independent experiments were performed in triplicate. Data were analyzed using software GraphPad Prism 6.

[9] = 3D7, 72 h, read-out: IC50 (µM) 3D7 strain
[10] = read-out: IC50 (µM) PfelK1^‐ strain
[11] = 72 h, parasitemia by flow cytometry, wild-type 3D7, read-out: IC50 3D7 strain (antimalarials)
[12] = read-out: IC50 PfelK1^‐ strain (antimalarials)

Structure (SMILES)	activity at 0.5 µM [1]	toxicity in HEK293 cells [2]	final parasitemia, compound along with melatonin (P. falciparum PfeIK1^‐ [3])	activity at 0.5 µM (P. falciparum PfeIK1^‐ [4])	IC50 [5, 9]	IC50 (P. falciparum PfeIK1^‐ [6]; [10])	ability to abolish the increase in parasitemia triggered by melatonin [7]	decrease in parasitemia compared to treatment with the hormone only [7]	parasitemia normalized to control, compound along with melatonin [7]	other results
O=C(NCCc1c[nH]c2ccccc12)C1CCCCC1 [Tripcicloexil (8), N‐(2‐(1H‐indol‐3‐yl)ethyl)cyclohexanecarboxamide]	102%	no toxicity	105.5 ± 0.91%	101%	28 ± 4.07 µM	37.6 ± 2.72 µM	–	–	–	–
O=C(NCCc1c[nH]c2ccccc12)c1ccco1 [Tripfuroila (7), N‐(2‐(1H‐indol‐3‐yl)ethyl)furan‐2‐carboxamide]	101%	no toxicity	102.3 ± 1.53%	98.5%	17.1 ± 2.6 µM	23.6 ± 2.2 µM	able to abolish	11.25%	98.52%	–
O=S(=O)(NCCc1c[nH]c2ccccc12)c1ccccc1 [Tripbenz (4), N‐(2‐(1H‐indol‐3‐yl) ethyl)benzenesulfonamide]	100%	no toxicity	–	95.6%	18.7 ± 2.5 µM	36.8 ± 3.44 µM	–	–	–	–
Cc1ccc(S(=O)(=O)NCCc2c[nH]c3ccccc23)cc1 [Triptosil (5), N‐(2‐(1H‐indol‐3‐yl)ethyl)‐4‐methylbenzenesulfonamide]	100%	no toxicity	105.4 ± 2.05%	99.3 ± 2.18%	19.8 ± 5.33 µM	30.6 ± 1.55 µM	able to abolish	9.7%	100%	–
COc1ccc2[nH]cc(CCNS(=O)(=O)c3ccccc3)c2c1 [Melatobenz (9), N‐(2‐(5‐methoxy‐1H‐indol‐3‐yl)ethyl)benzenesulfonamide]	102%	–	105.0 ± 1.97%	100%	38.5 ± 1.57 µM	57.8 µM	–	–	–	–
O=C(NCCc1c[nH]c2ccccc12)c1ccc(Br)s1 [Triptiofen (6), N‐(2‐(1H‐indol‐3‐yl) ethyl)‐5‐bromothiophene‐2‐carboxamide]	99.8%	no toxicity	104.1 ± 1.87%	98.7%	9.76 ± 0.6 µM	11.8 ± 0.6 µM	able to abolish	10%	100.1%	cytosolic calcium rise [8]: does not trigger a significant cytosolic calcium rise; Fmax/F0 (maximum fluorescence normalized to baseline) [8]: 1.11 ± 0.008; parasites in segmented schizont stage (P. falciparum (3D7); 1 µM): 1.33 ± 0.33; parasites in segmented schizont stage (P. falciparum (3D7); 10 µM): 2.22 ± 0.32; number of parasites compared to control (P. falciparum (3D7); 1 and 10 µM, starting at 36 hours, 3D7): significantly reduces
COc1ccc2[nH]cc(CCNS(=O)(=O)c3ccc(C)cc3)c2c1 [Melatotosil (10), N‐(2‐(5‐methoxy‐1H‐indol‐3‐yl)ethyl)‐4‐methylbenzenesulfonamide]	–	–	106.2 ± 1.55%	97.5%	–	–	able to abolish	11.69%	98.07%	increase in parasitemia compared to control group [1]: 10%; cytosolic calcium rise [8]: elicits a calcium rise; Fmax/F0 (maximum fluorescence normalized to baseline) [8]: 1.21 ± 0.01; IC50 (µM) 3D7 strain ([5]; 72 h, parasitemia by flow cytometry, wild-type 3D7): without antimalarial activity; also recorded: No activity; IC50 (µM) PfelK1^‐ strain (P. falciparum PfeIK1^‐ [6]; parasitemia by flow cytometry, PfeIK1 knockout): No activity
CCN(CC)CCCC(C)Nc1ccnc2cc(Cl)ccc12 (stereo not shown) [Chloroquine, reference compound]	–	–	–	–	–	–	–	–	–	IC50 ([5]; 3D7, 72 h, read-out: IC50 3D7 strain (antimalarials)): 0.0099 µM
COc1ccc2[nH]cc(CCNC(=O)c3ccco3)c2c1 [Melatofuroila (11), N‐(2‐(5‐methoxy‐1H‐indol‐3‐yl)ethyl)furan‐2‐carboxamide]	102%	–	99.78 ± 2.03%	97.1%	30.9 ± 4.92 µM	31.9 ± 0.46 µM	–	–	–	–
O=C1C(O)=C([C@H]2CC[C@H](c3ccc(Cl)cc3)CC2)C(=O)c2ccccc21 [Atovaquone, reference compound]	–	–	–	–	–	–	–	–	–	IC50 [5, 11]: 0.0004 µM; IC50 (P. falciparum PfeIK1^‐ [6]; [12]): 0.00047 µM
C[C@@H]1CC[C@H]2[C@@H](C)C(=O)O[C@@H]3O[C@@]4(C)CC[C@@H]1[C@]32OO4 [Artemisinin, reference compound]	–	–	–	–	–	–	–	–	–	IC50 [5, 11]: 0.0137 µM; IC50 (P. falciparum PfeIK1^‐ [6]; [12]): 0.0188 µM
COc1ccc2[nH]cc(CCNC(=O)C3CCCCC3)c2c1 [Melatocicloexil (12), N‐(2‐(5‐methoxy‐1H‐indol‐3‐yl)ethyl)cyclohexanecarboxamide]	104%	–	107.0 ± 1.37%	98.3%	35.2 ± 4.14 µM	47.6 ± 6.43 µM	–	–	–	–
